Assay results taken from patent publication US20250296960A1, “PEPTIDE COMPOSITIONS AND METHODS OF USE THEREOF” (priority 2022, published 2025).
Numbered stars: 1 amine (or outer) side, 2 acyl side, 3 side chain; on linkers, the order of the positions; unused ones are H or OH. Square brackets hold non-standard residues; d marks the D form. Side chains are listed from the residue outwards. Ends that are not written are not given here. * marks the point of attachment. C18 = C18 fatty acid (C16-C22 fatty acids conjugated via γGlu/8-amino-3,6-dioxaoctanoic acid spacers); C20 diacid = O=C(O)CCCCCCCCCCCCCCCCCCC(=O)*; γGlu = O=C(O)[C@H](CCC(=O)[*:2])N[*:1]; αMeL = CC(C)C[C@](C)(N)C(=O)O; AEEA = NCCOCCOCC(=O)O; Aib = CC(C)(N)C(=O)O

Legend:
[1] = Body weight loss in normal C57BL/6 mice, subcutaneous dosing; format: in vivo; conditions: for Weight loss (%): normal mice
Procedure: To confirm the therapeutic effect of the peptide in vivo, polypeptides were administered to mice to measure changes in body weight. […] The peptides were delivered at 0.02% polysorbate 80 (PS80) in PBS and dosing volume was 10 mL/kg. Body weight was monitored 6 h, QD.
To confirm the therapeutic effect of the peptide in obesity, diabetes, or NASH, polypeptides were administered to mice to measure changes in food intake, blood glucose and body weight. […] In addition, a NASH animal model was prepared by feeding a high fat, high fructose, high cholesterol diet to normal C57BL/6 mice (approximately 6 weeks old) for approximately 21 weeks, and increasing the body weights of the mice to approximately 50 g on average. Thereafter, polypeptides were administered by subcutaneous injection at dose of 20 nmol/kg once every other day for 2 weeks. Body weight and food intake were measured once every other day given points of time. After 2 weeks of treatment period, mice were sacrificed, then liver weight, hepatic triglyceride, and NASH related biomarkers were measured.
DD01 administered at 40 nmol/kg, s.c. Q2D as positive control was delivered at 0.02% PS80 in PBS and dosing volume was 10 mL/kg. Body weight was monitored QD for 4 days.
The peptides were delivered at 0.02% PS80 in PBS and dosing volume was 10 mL/kg. Food intake, blood glucose, and body weight changes were monitored QD.

human GLP-1R = molecular target: T1, human GLP-1R (Homo sapiens, UniProt P43220); assay: cAMP assay (HitHunter cAMP) in GLP-1R-expressing CHO-K1 cells (GLP-1R+ cells); format: cell-based
T1 construct: host or cells: CHO-K1
T1 sequence (P43220 24-463): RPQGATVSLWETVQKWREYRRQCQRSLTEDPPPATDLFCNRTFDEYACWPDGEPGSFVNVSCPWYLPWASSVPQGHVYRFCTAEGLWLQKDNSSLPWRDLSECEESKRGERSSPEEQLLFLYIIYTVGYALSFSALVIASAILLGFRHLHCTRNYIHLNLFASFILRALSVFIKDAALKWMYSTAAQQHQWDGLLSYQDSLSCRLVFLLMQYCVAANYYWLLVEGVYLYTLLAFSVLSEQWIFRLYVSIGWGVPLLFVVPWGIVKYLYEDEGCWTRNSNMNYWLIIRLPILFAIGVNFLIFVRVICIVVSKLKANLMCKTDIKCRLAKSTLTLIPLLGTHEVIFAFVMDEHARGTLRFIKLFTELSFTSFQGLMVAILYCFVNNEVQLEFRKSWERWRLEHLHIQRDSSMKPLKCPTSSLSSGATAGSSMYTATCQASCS
Procedure: (§1) The cells were seeded in a 96-well plate at 7×10^3 cells/well using cell plate reagent and incubated the cells overnight at 37° C. and 5% CO2. To perform the cAMP detection assay, cell plating reagent were replaced with the cAMP Assay buffer. Each of the wells was then treated with the diluted peptide and incubated for 30 minutes under conditions of a temperature of 37° C. in a CO2 incubator.
(§2) After the incubation, cAMP Antibody reagent and Working cAMP detection solution to all wells. Incubate the plate for 1 hour at Room temperature in the dark. Then, cAMP Solution A was added and incubated for 3 hours at room temperature in the dark. Subsequently, the luminescence was measured using the microplate reader device.

human GCGR = molecular target: T2, human GCGR (Homo sapiens, UniProt P47871); assay: cAMP assay (HitHunter cAMP) in GCGR-expressing CHO-K1 cells (GCGR+ cells); format: cell-based
T2 construct: host or cells: CHO-K1
T2 sequence (P47871 26-477): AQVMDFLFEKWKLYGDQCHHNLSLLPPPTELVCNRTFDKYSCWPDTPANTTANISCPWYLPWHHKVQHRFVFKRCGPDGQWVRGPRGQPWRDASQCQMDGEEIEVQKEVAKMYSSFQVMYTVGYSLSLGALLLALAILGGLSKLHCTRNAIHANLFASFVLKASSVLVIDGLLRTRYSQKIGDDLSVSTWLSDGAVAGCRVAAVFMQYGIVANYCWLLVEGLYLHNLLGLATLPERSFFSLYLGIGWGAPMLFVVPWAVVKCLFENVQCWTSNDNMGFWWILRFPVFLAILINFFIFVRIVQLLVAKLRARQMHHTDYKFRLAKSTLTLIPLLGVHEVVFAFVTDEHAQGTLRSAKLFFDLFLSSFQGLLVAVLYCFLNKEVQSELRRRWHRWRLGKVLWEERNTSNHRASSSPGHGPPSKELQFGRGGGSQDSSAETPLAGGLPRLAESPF
Procedure: as §1, §2

human GIPR = molecular target: T3, human GIPR (Homo sapiens, UniProt P48546); assay: cAMP assay (HitHunter cAMP) in GIPR-expressing CHO-K1 cells (GIPR+ cells); format: cell-based
T3 construct: host or cells: CHO-K1
T3 sequence (P48546 22-466): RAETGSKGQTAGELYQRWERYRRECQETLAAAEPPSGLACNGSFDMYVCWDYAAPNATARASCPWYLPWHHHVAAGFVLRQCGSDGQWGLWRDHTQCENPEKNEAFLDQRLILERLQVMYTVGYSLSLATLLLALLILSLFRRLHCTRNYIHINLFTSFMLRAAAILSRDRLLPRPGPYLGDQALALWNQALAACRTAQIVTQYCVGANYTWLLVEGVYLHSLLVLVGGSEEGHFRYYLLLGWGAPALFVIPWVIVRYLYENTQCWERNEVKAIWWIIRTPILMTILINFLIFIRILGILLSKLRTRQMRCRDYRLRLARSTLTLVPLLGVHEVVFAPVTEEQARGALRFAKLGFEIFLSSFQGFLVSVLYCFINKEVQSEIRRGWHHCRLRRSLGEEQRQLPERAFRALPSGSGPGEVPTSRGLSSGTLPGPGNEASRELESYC
Procedure: as §1, §2

[2] = 20 nmol/kg QD, after 48 or 72 hours
[3] = Table 13, EC50 of STD peptide over EC50 of peptide
[4] = Table 14, normalised to activity at GLP-1R
[5] = 20 nmol/kg QD, Weight loss at 48 hr

## 12-5A: Peptide No. 12-5 lipidated via conjugation to C-terminal cysteine (type A) (H[Aib]QGTFTSDWSKYLDQQMQQDFVDWLLNGGPSSGAPPPSC([AEEA-AEEA-γGlu-C18])-NH2)
[1]; [2]
  Weight loss (%): 5.4 ± 0.9%

## 5-4A: Peptide No. 5-4 lipidated via conjugation to C-terminal cysteine (type A) (H[Aib]QGTFTSDYSKYLDYMMQRDFVQWLIEGGPSSGAPPPSC([AEEA-AEEA-γGlu-C18])-NH2)
[1]; [2]
  Weight loss (%): 8.3 ± 0.9%

## Y-Aib-QGTFTSDYSI-αMeL-LDKK((2-[2-(2-amino-ethoxy)-ethoxy]-acetyl)-(γGlu)-CO-(CH2)18-CO2H)AQ-Aib-AFIEYLLE-Aib-GPSS-Aib-APPPS-NH2 (Y[Aib]QGTFTSDYSI[αMeL]LDKK([AEEA-γGlu-C20 diacid])AQ[Aib]AFIEYLLE[Aib]GPSS[Aib]APPPS-NH2; N-terminus assumed; SMILES CC[C@H](C)[C@H](NC(=O)[C@H](Cc1ccccc1)NC(=O)[C@H](C)NC(=O)C(C)(C)NC(=O)[C@H](CCC(N)=O)NC(=O)[C@H](C)NC(=O)[C@H](CCCCNC(=O)COCCOCCNC(=O)CC[C@H](NC(=O)CCCCCCCCCCCCCCCCCCC(=O)O)C(=O)O)NC(=O)[C@H](CCCCN)NC(=O)[C@H](CC(=O)O)NC(=O)[C@H](CC(C)C)NC(=O)[C@](C)(CC(C)C)NC(=O)[C@@H](NC(=O)[C@H](CO)NC(=O)[C@H](Cc1ccc(O)cc1)NC(=O)[C@H](CC(=O)O)NC(=O)[C@H](CO)NC(=O)[C@@H](NC(=O)[C@H](Cc1ccccc1)NC(=O)[C@@H](NC(=O)CNC(=O)[C@H](CCC(N)=O)NC(=O)C(C)(C)NC(=O)[C@@H](N)Cc1ccc(O)cc1)[C@@H](C)O)[C@@H](C)O)[C@@H](C)CC)C(=O)N[C@@H](CCC(=O)O)C(=O)N[C@@H](Cc1ccc(O)cc1)C(=O)N[C@@H](CC(C)C)C(=O)N[C@@H](CC(C)C)C(=O)N[C@@H](CCC(=O)O)C(=O)NC(C)(C)C(=O)NCC(=O)N1CCC[C@H]1C(=O)N[C@@H](CO)C(=O)N[C@@H](CO)C(=O)NC(C)(C)C(=O)N[C@@H](C)C(=O)N1CCC[C@H]1C(=O)N1CCC[C@H]1C(=O)N1CCC[C@H]1C(=O)N[C@@H](CO)C(N)=O) [EL.EX.14, reference compound]
[1]; 10 nmol/kg QD, after 48 or 72 hours
  Weight loss (%): 11.0 ± 2.4%

## 12-2A: Peptide No. 12-2 lipidated via conjugation to C-terminal cysteine (type A) (Y[Aib]QGTFTSDWSKYLDQQMQQDFVDWLINGGPSSGAPPPSC([AEEA-AEEA-γGlu-C18])-NH2)
[1]; [2]
  Weight loss (%): 2.0 ± 0.9%

## 12-1A: Peptide No. 12-1 lipidated via conjugation to C-terminal cysteine (type A) (Y[Aib]QGTFTSDWSKYLDQQMAQDFVDWLINGGPSSGAPPPSC([AEEA-AEEA-γGlu-C18])-NH2)
[1]; [2]
  Weight loss (%): 9.0 ± 2.2%

## CC[C@H](C)[C@H](NC(=O)[C@H](CC(C)C)NC(=O)[C@H](Cc1c[nH]c2ccccc12)NC(=O)[C@H](CCC(N)=O)NC(=O)[C@@H](NC(=O)[C@H](Cc1ccccc1)NC(=O)[C@H](CC(=O)O)NC(=O)[C@H](CCCNC(=N)N)NC(=O)[C@H](C)NC(=O)[C@H](CCSC)NC(=O)[C@H](CCSC)NC(=O)[C@H](Cc1ccc(O)cc1)NC(=O)[C@H](CC(=O)O)NC(=O)[C@H](CC(C)C)NC(=O)[C@H](Cc1ccc(O)cc1)NC(=O)[C@H](CCCCNC(=O)CCCC[C@@H]1SC[C@@H]2NC(=O)N[C@@H]21)NC(=O)[C@H](CO)NC(=O)[C@H](Cc1ccc(O)cc1)NC(=O)[C@H](CC(=O)O)NC(=O)[C@H](CO)NC(=O)[C@@H](NC(=O)[C@H](Cc1ccccc1)NC(=O)[C@@H](NC(=O)CNC(=O)[C@H](CCC(N)=O)NC(=O)C(C)(C)NC(=O)[C@@H](N)Cc1c[nH]cn1)[C@@H](C)O)[C@@H](C)O)C(C)C)C(=O)N[C@@H](CCC(=O)O)C(=O)NCC(=O)NCC(=O)N1CCC[C@H]1C(=O)N[C@@H](CO)C(=O)N[C@@H](CO)C(=O)NCC(=O)N[C@@H](C)C(=O)N1CCC[C@H]1C(=O)N1CCC[C@H]1C(=O)N1CCC[C@H]1C(=O)N[C@@H](CO)C(=O)N[C@@H](CSC1CC(=O)N(CCNC(=O)COCCOCCNC(=O)COCCOCCNC(=O)CC[C@H](NC(=O)CCCCCCCCCCCCCCCCC(=O)O)C(=O)O)C1=O)C(N)=O (stereo partly shown) [5B, HAibQGT FTSDY SB*YLD YMMARDFVQWLIEGGPSSGAPPPSC*]
Human GLP-1R; [3]
  Activity relative to STD peptide (%), GLP-1: 87%
Human GLP-1R; [4]
  Activity relative to GLP-1 (%), GLP-1: 100%
Human GCGR; [3]
  Activity relative to STD peptide (%), Glucagon: 5%
Human GCGR; [4]
  Activity relative to GLP-1 (%), Glucagon: 6%
Human GIPR; [3]
  Activity relative to STD peptide (%), GIP: 2%
Human GIPR; [4]
  Activity relative to GLP-1 (%), GIP: 2%

## YAibQGT FTSDY SKYLD YK*MAR DFVQW LIEGG PSSGA PPPS (Y[Aib]QGTFTSDYSKYLDYK([AEEA-AEEA-γGlu-C18])MARDFVQWLIEGGPSSGAPPPS-NH2) [5-1F, K* = lysine lipidated with 2OEG-γGlu-C18]
[1]; [5]
  Weight loss (%): 21.9 ± 2.5%

## 12-4A: Peptide No. 12-4 lipidated via conjugation to C-terminal cysteine (type A) (H[Aib]QGTFTSDWSKYLDQQMQQDFVDWLINGGPSSGAPPPSC([AEEA-AEEA-γGlu-C18])-NH2)
[1]; [2]
  Weight loss (%): 4.3 ± 0.9%

## 5-3A: Peptide No. 5-3 lipidated via conjugation to C-terminal cysteine (type A) (Y[Aib]QGTFTSDYSKLLDYMMQRDFVQWLLEGGPSSGAPPPSC([AEEA-AEEA-γGlu-C18])-NH2)
[1]; Example 5, 20 nmol/kg s.c. QD, 4 days
  body weight loss effect, in words: least effect
[1]; [2]
  Weight loss (%): 5.5 ± 1.6%

## 12-7A: Peptide No. 12-7 lipidated via conjugation to C-terminal cysteine (type A) (H[Aib]EGTFTSDWSKYLDQQMAQDFVDWLINGGPSSGAPPPSC([AEEA-AEEA-γGlu-C18])-NH2)
[1]; [2]
  Weight loss (%): 9.5 ± 3.0%

## HAibQGT FTSDY SK*LLD YMMQRDFVQWLLEGGPSSGAPPPS (H[Aib]QGTFTSDYSK([AEEA-AEEA-γGlu-C18])LLDYMMQRDFVQWLLEGGPSSGAPPPS-NH2) [5-5D, K* = lysine lipidated with 2OEG-γGlu-C18]
[1]; [5]
  Weight loss (%): 10.3 ± 1.3%

## 12-3A: Peptide No. 12-3 lipidated via conjugation to C-terminal cysteine (type A) (Y[Aib]QGTFTSDWSKYLDQQMQQDFVDWLLNGGPSSGAPPPSC([AEEA-AEEA-γGlu-C18])-NH2)
[1]; [2]
  Weight loss (%): 0.2 ± 1.8%

## HAibQGT FTSDY SK*YLD YMMQRDFVQWLIEGGPSSGAPPPS (H[Aib]QGTFTSDYSK([AEEA-AEEA-γGlu-C18])YLDYMMQRDFVQWLIEGGPSSGAPPPS-NH2) [5-4D, K* = lysine lipidated with 2OEG-γGlu-C18]
[1]; [5]
  Weight loss (%): 7.2 ± 0.9%
